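The compound was tested at five concentrations on cells cultured in 96-well plates, with a 48-hour exposure period. GI50 is the concentration that inhibits growth by half. TGI marks complete inhibition of growth.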
Tests used:
Experiment in all cases: DTP human tumour cell line panel, 48 h
[1] = system: IGROV1 ovarian
[2] = system: KM12 colon
[3] = system: RPMI-8226 leukemia
[4] = system: SF-539 CNS
[5] = system: SK-MEL-2 melanoma
[6] = system: SW-620 colon
[7] = system: UO-31 renal
[8] = system: A549 NSCLC
[9] = system: TK-10 renal
[10] = system: A498 renal

Row | SMILES | GI50 [1] | TGI [1] | GI50 [2] | TGI [2] | GI50 [3] | TGI [3] | GI50 [4] | TGI [4] | GI50 [5] | TGI [5] | GI50 [6] | TGI [6] | GI50 [7] | TGI [7] | GI50 [8] | TGI [8] | GI50 [9] | TGI [9] | TGI [10] | GI50 [10]
1 | CC1=C(C(=O)Nc2ccc(Cl)c(Cl)c2)C(c2cccc(O)c2)NC(=S)N1 (centres undefined) | 12.8 µM | 44.2 µM | 7.77 µM | 16.6 µM | 10.1 µM | 38.1 µM | 8150 nM | 15.7 µM | 8 µM | 18.3 µM | 12.5 µM | 33.2 µM | 9.48 µM | 19.1 µM |  |  |  |  |  | 
2 | COc1cc2c(cc1C)NC(=O)/C2=C/c1c(C)nc2sc(C)cn12 | 26.8 µM | > 100 µM | 40.7 µM | > 100 µM | 31.3 µM | > 100 µM | > 100000 nM | > 100 µM | > 100 µM | > 100 µM | 63 µM | > 100 µM | 86.6 µM | > 100 µM | 60800 nM | > 100 µM | 68000 nM | > 100 µM |  | 
3 | N#Cc1ccccc1/C=N/O |  | > 100 µM |  | > 100 µM |  | > 66.7 µM |  | > 100 µM |  |  |  | > 51.8 µM |  | > 100 µM |  | > 100 µM |  | > 100 µM | > 100 µM | 
4 | O=C(/C=C/c1ccc2c(c1)OCO2)c1ccccc(=O)c1O |  | 41.8 µM |  | 26.1 µM |  | > 100 µM |  |  |  | 72.7 µM |  | > 100 µM |  | > 100 µM |  |  |  | 43.5 µM | > 100 µM | 
5 | [O-][N+]1=C(c2ccccc2)COc2ccccc21 |  | > 100 µM |  | > 100 µM |  | > 100 µM |  | > 100 µM |  | > 100 µM |  | > 100 µM |  | > 100 µM |  | > 100 µM |  | > 100 µM | > 100 µM | 
6 | Cc1ccc(S(=O)(=O)N2C/C(=C\c3cc(F)cc(F)c3)C(=O)/C(=C/c3cc(F)cc(F)c3)C2)cc1 | 0.371 µM | 1.4 µM | 0.268 µM | 0.704 µM | 0.0362 µM | 0.254 µM | 710 nM | 2.16 µM | 0.972 µM | 2.84 µM | 0.0582 µM | 0.283 µM | 0.481 µM | 1.08 µM | 2420 nM | 10.1 µM | 994 nM | 2.99 µM | 3.41 µM | 1.57 µM
7 | N=C1N=Nc2nc(C3(c4nc5n(c4O)C(=N)N=N5)Cc4ccccc4C3=O)c(O)n21 (centres undefined) | 63.7 µM | > 100 µM |  | > 100 µM |  | > 100 µM |  | > 100 µM | > 100 µM | > 100 µM |  | > 100 µM |  | > 100 µM |  | > 100 µM |  | > 100 µM | > 43.9 µM | 
8 | C/C(CC(=O)Nc1ccc([N+](=O)[O-])cc1)=N/N=C(N)N |  | > 100 µM |  | > 100 µM |  |  |  | > 100 µM |  | > 100 µM |  | > 100 µM |  | > 100 µM |  | > 100 µM |  | > 100 µM |  | 
9 | C[C@H]1[C@H](C)CC[C@]2(C(=O)O)CC[C@]3(C)C(=CC[C@@H]4[C@@]5(C)CC[C@H](OC(=O)/C=C\c6ccc(O)cc6)C(C)(C)[C@@H]5CC[C@]43C)[C@H]12 | 15.5 µM | > 100 µM |  |  | 1.8 µM | 10.3 µM | 2900 nM | 13.5 µM | 28.9 µM | > 100 µM | 17.6 µM | 33.7 µM | 13.6 µM | > 100 µM | 2020 nM | > 100 µM | 1150 nM | 4.66 µM | 29.2 µM | 15 µM
10 | O=C1C=CC(=O)N1CCCCCCCCCCN1C(=O)C=CC1=O | 7.89 µM | 24.7 µM | 15.4 µM | 30.3 µM | 6.72 µM | 57.7 µM | 16400 nM | 30.6 µM |  |  | 2.42 µM | 6.09 µM | 4.92 µM | 19.6 µM | 18200 nM | 41.5 µM | 22900 nM | 69 µM | 49.7 µM | 20 µM
11 | COC(=O)/C(Br)=C/c1c[nH]c2ccc(Br)cc12 |  |  | 12.6 µM | 27 µM |  |  | 14900 nM | 32.9 µM | 6.9 µM | 25.4 µM | 14.7 µM | 27.8 µM | 6.36 µM | 30.1 µM |  |  | 19000 nM | 49.4 µM | 20.9 µM | 7.98 µM
12 | COC(=O)c1cc(O)ccc1NC(=O)c1ccc(O)cc1 |  | > 100 µM |  | > 100 µM |  | > 100 µM |  | > 100 µM |  | > 100 µM |  | > 100 µM |  | > 100 µM |  | > 100 µM |  | > 100 µM |  | 
13 | Cc1cc2c(=O)cc(-c3ccc(C(=O)O)cc3)oc2c(C(=O)O)c1C |  | > 100 µM |  | > 100 µM |  | > 100 µM |  | > 100 µM |  | > 100 µM |  | > 100 µM |  | > 100 µM |  | > 100 µM |  | > 100 µM |  | 
14 | O=C1CC23CC(=O)CC2(C1)c1ccccc1C3=O (centres undefined) |  | > 100 µM |  | > 100 µM |  | > 100 µM |  | > 100 µM |  | > 100 µM |  | > 100 µM |  | > 100 µM |  | > 100 µM |  | > 100 µM |  | 
15 | O=C(CCc1cc(-c2ccco2)n(-c2ccc([N+](=O)[O-])cc2[N+](=O)[O-])n1)Nc1ccccc1 |  | > 100 µM |  | > 100 µM |  | > 100 µM |  | > 100 µM |  | > 100 µM |  | > 100 µM |  | > 100 µM |  | > 100 µM |  |  | > 100 µM | 
16 | COC(C(=O)[C@@H](O)[C@@H](C)O)[C@@H]1Cc2cc3cc(O[C@H]4C[C@@H](O[C@H]5C[C@@H](O)[C@H](O)C(C)O5)[C@H](O)C(C)O4)c(C)c(O)c3c(O)c2C(=O)[C@H]1O[C@H]1C[C@@H](O[C@H]2C[C@@H](O[C@H]3C[C@@H](O)[C@@H](O)C(C)O3)[C@@H](O)C(C)O2)[C@H](O)C(C)O1 (some centres undefined) |  |  | 0.207 µM | 11.3 µM |  |  | 147 nM | 2.82 µM | 0.172 µM | 1.11 µM | 0.715 µM | > 32.5 µM | 0.605 µM | 4.75 µM | 674 nM | > 32.5 µM | 873 nM | > 32.5 µM | 0.278 µM | 0.0542 µM
17 | COc1ccc(/C=C/C(=O)c2ccc(NC(=O)CSc3nnc(-c4cc(OC)c(OC)c(OC)c4)o3)cc2)cc1 |  |  | 1.77 µM | 3.4 µM | 1.73 µM | 4.31 µM | 1640 nM | 3.03 µM | 1.79 µM | 4.82 µM | 1.86 µM | 3.6 µM | 1.46 µM | 2.97 µM | 1840 nM | 3.53 µM | 1520 nM | 3.03 µM | 23.6 µM | 11 µM

From PubChem BioAssay (NCI)
